According to ChEMBL document CHEMBL6121030, “Asymmetric Synthesis, Structure Determination, and Biologic Evaluation of Isomers of TLAM as PFK1 Inhibitors” (ACS Med Chem Lett, 2025):

Test system: HeLa; call rule not given here
Assay: Effect on mitochondrial respiration in human HeLa cells assessed as increase in OCR/ECAR ratio incubated for 24 hrs by XFe96 extracellular flux analyzer assay
Type: functional, cell-based

In the case of O=C(O)[C@H]1C2C=CC(C2)[C@H]1C(=O)N1CCc2c([nH]c3ccccc23)[C@H]1C(F)(F)F (stereo partly specified), the Activity is reported as “Active; Significantly Increased”.

Test system: not listed separately
Assay: Inhibition of recombinant PFK1 (unknown origin) extracted from baculovirus-infected Sf9 cells incubated for 45 min by ADP-Glo kinase assay
Set-up: species or system Homo sapiens

Going from O=C(O)[C@H]1C2C=CC(C2)[C@H]1C(=O)N1CCc2c([nH]c3ccccc23)[C@@H]1C(F)(F)F (stereo partly specified) to O=C(O)[C@@H]1C2C=CC(C2)[C@@H]1C(=O)N1CCc2c([nH]c3ccccc23)[C@@H]1C(F)(F)F (stereo partly specified), the IC50 falls from 25 µM to 4.7 µM (5.3-fold).

Going from O=C(O)C1C2C=CC(C2)C1C(=O)N1CCc2c([nH]c3ccccc23)C1C(F)(F)F (stereo unspecified) to O=C(O)[C@@H]1C2C=CC(C2)[C@@H]1C(=O)N1CCc2c([nH]c3ccccc23)[C@H]1C(F)(F)F (stereo partly specified), the IC50 rises from 2.7 µM to > 100 µM. The first is the more potent here.

Compound O=C(O)[C@H]1C2C=CC(C2)[C@H]1C(=O)N1CCc2c([nH]c3ccccc23)[C@H]1C(F)(F)F (stereo partly specified) has an IC50 of 2.1 µM.
